Data reported in EP3833345B1, “SMALL MOLECULE-INHIBITORS OF 6-PHOSPHOFRUCTO-1-KINASE FOR REDUCING LACTATE GENERATION BY CANCER CELLS” (Kemijski Institut, priority 2018, dated 2020).

Key:
[1] = system: Jurkat cells; experiment: lactate excretion by Jurkat cells (enzymatic L-lactic acid kit); format: cell-based, human; details: preliminary test, 100 µM inhibitor, followed for 48 hours, versus DMSO control
Experimental: The cells were incubated in 1 mL volume (24 well plates) at 5% CO2 and 37°C. The inhibitors were added in 100 µM concentration. As a control, equivalent amount of DMSO as used for the addition of inhibitors was supplemented to the medium. The tests started with 1×10^5 cells per mL. Extracellular lactate excreted by the Jurkat cells was measured in the supernatant of the growth medium after the cells were removed by centrifugation at 1500 rpm for 5 minutes. Lactate concentration was determined enzymatically using L-Lactatic acid kit (K-LATE, Megazyme, Ireland).
Measurements of lactate excretion in the tumorigenic Jurkat cells and the cells treated with two selected inhibitors at different concentrations were repeated by more detailed measurements. The growth conditions were identical to those described in Experiment 2. No significant difference in lactate excretion could be observed by the treated and untreated cells during the initial stage of growth that lasted for approximately 12 hours. Later on lactate excretion by the Jurkat cells ceased in the presence of both inhibitors.

[2] = target: T1, modified (47 kDa) 6-phosphofructo-1-kinase (PFK-M), sfPFK-M fragments (Homo sapiens, UniProt P08237); experiment: in vitro inhibition of purified recombinant modified (cancer-specific) PFK-M fragments; details: native and modified PFK-M not distinguished
T1 sequence (P08237 1-443 limits assumed): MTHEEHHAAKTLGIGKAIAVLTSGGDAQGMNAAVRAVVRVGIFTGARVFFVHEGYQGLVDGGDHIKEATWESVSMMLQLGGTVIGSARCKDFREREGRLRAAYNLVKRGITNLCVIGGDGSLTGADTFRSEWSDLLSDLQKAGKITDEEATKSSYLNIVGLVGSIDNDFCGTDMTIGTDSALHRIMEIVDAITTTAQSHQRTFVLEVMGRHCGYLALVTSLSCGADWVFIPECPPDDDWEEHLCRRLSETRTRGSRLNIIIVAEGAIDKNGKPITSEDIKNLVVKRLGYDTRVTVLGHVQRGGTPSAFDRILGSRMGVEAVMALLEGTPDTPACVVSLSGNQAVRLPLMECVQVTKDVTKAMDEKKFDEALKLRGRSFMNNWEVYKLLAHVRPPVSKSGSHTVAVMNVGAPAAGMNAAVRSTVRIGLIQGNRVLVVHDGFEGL
Experimental: Initially, all compounds were tested in vitro for inhibition of the purified human native enzyme (85 kDa) and modified cancer-specific shorter fragments (47 kDa) of muscle type PFK-M, followed by measurements of the purified native enzyme (85 kDa) and shorter fragments (70 kDa) of liver type PFK-L isoform.
Selected compounds were tested for in vitro inhibition of isolated recombinant human native and modified PFK-M enzymes.
The yeast transformant encoding the native human PFK-M enzyme was designated as nPFKM strain while transformant encoding cancer specific shorter fragments was designated as sfPFKM strain. […] For the enzymatic measurements, all the substrates (F6P and ATP), auxiliary enzymes, NADH and inhibitors dissolved in DMSO were added first to the buffer with PEG. After thorough mixing of the buffer with all ingredients, the enzymatic reaction started by the insertion of the purified recombinant enzymes.

[3] = system: Caco-2 cells; experiment: lactate excretion by Caco-2 cells; format: cell-based; details: single addition
Experimental: Preliminary in vivo tests were run by measuring lactate production by three different tumorigenic cell lines. […] For the experiment, the following tumorigenic cells lines originating from different tumours were tested: Caco-2 cells (Figure 10a), originating from colorectal adenoma carcinoma; COLO 829 cells (Figure 10b), isolated from melanoma; and MDA-MB-231 cells (Figure 10c) derived from metastatic phase of mammary/breast cancer.
(§1) Lactate generation, growth yield and survival under normal and inhibitory conditions of three different tumorigenic cells lines were determined in more detailed measurements. […] Cytotoxicity was measured by the Lactate dehydrogenase (LDH) kit (Roche).
(§2) Therefore, the influence of selected inhibitors was assessed by sequential re-insertion of low concentrations of inhibitors at indicated time points. The inhibitors were first added to the medium 8 hours after the inoculation followed by periodically additions at 24-hour intervals (marked by arrows).

[4] = system: COLO 829 cells; experiment: lactate excretion by COLO 829 cells; format: cell-based; details: for lactate excretion by COLO 829 cells: single addition, different concentrations
Experimental: (§3) Preliminary in vivo tests were run by measuring lactate production by three different tumorigenic cell lines. Again, 100 µM concentrations of tested compounds have been added to the medium. For the experiment, the following tumorigenic cells lines originating from different tumours were tested: Caco-2 cells (Figure 10a), originating from colorectal adenoma carcinoma; COLO 829 cells (Figure 10b), isolated from melanoma; and MDA-MB-231 cells (Figure 10c) derived from metastatic phase of mammary/breast cancer. All adherent cell lines were grown in the RPMI 1640 GlutaMAX substrate (Thermo Fisher) supplemented with 10% FBS.
On the basis of preliminary results, inhibitors No. 23, 29, 30 and 31 were tested on COLO 829 cells. […] No significant discrepancies of total cell numbers in respect to the control were observed due to the different concentrations of inhibitors in the medium (Figure 13e). The average percent of dead COLO 829 cells in the control and in the presence of different concentrations of inhibitors were as follows: inh. 23 (9,23±0,6%), inh. 29 (9,31±0,73%), inh. 30 (8,27±0,49%), inh. 31 (8,26±0,38%). Additionally, cytotoxicity of inh. 3 (5,01±1,08%) and 9 (3,65±0,78%) for COLO 829 cells were also determined. No dose dependent decrease of survival was observed by any inhibitor.
as §2, with “A decrease in inhibitory effectiveness of some compounds was observed after certain period of time (Example 11). […] Therefore,” for “Therefore,”
No significant cytostatic (Figure 16f) of cytotoxic effect of inhibitors could be detected after 92 hours of incubation despite of sequential addition of various concentrations of inhibitors. The following average percentages of dead cells were perceived in the medium without and media with inh. 3 (1,95±0,15%) inh. 9 (1,70±0,14%), inh. 23 (2,40±0,09%), inh. 29 (1,66±0,25%) and inh. 30 (1,38±0,18%). No detrimental effects of increased inhibitors concentrations on cell deaths have been observed.

[5] = system: MDA-MB-231 cells; experiment: lactate excretion by MDA-MB-231 cells; format: cell-based; details: single addition; for lactate excretion by MDA-MB-231 cells: different concentrations
Experimental: as §3
Inhibitors No. 23, 29, 30 and 31 were tested for preventing lactate generation by the MDA-MB-231 cells. […] No significant discrepancies of total cell numbers were observed (Figure 14e) due to the different concentrations of inhibitors in the medium. […] The average percent of dead MDA-MB-231 cells in the control and in the presence of different concentrations of inhibitors were as follows: inh. 23 (2,98±0,2%), inh. 29 (3,37±0,39%), inh. 30 (3,4±0,21%), inh. 31 (6,87±0,44%). Additionally, cytotoxicity of inh. 3 (7,2±0,47%) and 9 (6,59±0,29%) for MDA-MB-231 cells were also determined. No dose dependent decrease of survival was observed by any inhibitor.
as §2, with “A decrease in inhibitory effectiveness of some compounds was observed after certain period of time (Example 11). […] Therefore,” for “Therefore,”
In MDA-MB-231 calls similar results to those found in Caco-2 cells were observed. […] No significant cytostatic (Figure 17f) or cytotoxic effect of inhibitors could be detected after 92 hours of incubation despite of sequential addition of various concentrations of inhibitors. The following average percentages of dead cells were perceived in the medium without and with inh. 3 (2,05±0,18%), inh. 9 (1,85±0,05%), inh. 23 (2,20±0,15%), inh. 29 (1,54±0,16%) and inh. 30 (2,00±0,18%). No detrimental effects of increased inhibitors concentrations on cell deaths have been observed.

[6] = system: Caco-2 cells; experiment: cytotoxicity in Caco-2 cells (lactate dehydrogenase (LDH) kit); format: cell-based
Experimental: as §1

[7] = system: COLO 829 cells; experiment: cytotoxicity in COLO 829 cells (LDH kit); format: cell-based; details: for average percent of dead COLO 829 cells: single addition, average over control and different concentrations of inhibitor
Experimental: as §1

[8] = system: MDA-MB-231 cells; experiment: cytotoxicity in MDA-MB-231 cells (LDH kit); format: cell-based; details: for average percent of dead MDA-MB-231 cells: single addition, average over control and different concentrations of inhibitor
Experimental: as §1
Inhibitors No. 23, 29, 30 and 31 were tested for preventing lactate generation by the MDA-MB-231 cells.

[9] = sequential addition at 24-hour intervals, 92 hours, average over medium without and with inhibitor

Row | SMILES | lactate excretion by the Jurkat cells [1] | in vitro PFK-M inhibition [2] | lactate excretion by COLO 829 cells [4] | lactate excretion by MDA-MB-231 cells [5] | average percent of dead COLO 829 cells [7] | average percent of dead MDA-MB-231 cells [8] | further results
1 | CNC(=O)c1nc(CN2CCc3onc(-c4cccc(F)c4)c3C2)no1 [Inhibitor No. 11, 3-{[3-(3-fluorophenyl)-6,7-dihydroisoxazolo[4,5-c]pyridin-5(4H)-yl]methyl}-N-methyl-1,2,4-oxadiazole-5-carboxamide] | Less efficient reduction of lactate overflow | no in vitro PFK-M inhibition could be detected |  |  |  |  | 
2 | Cc1nnc(COC(=O)c2ccc3noc(-c4ccccc4)c3c2)o1 [Inhibitor No. 8, (5-methyl-1 ,3,4-oxadiazol-2-yl)methyl 3-phenyl-2,1-benzoxazole-5-carboxylate] | Less efficient reduction of lactate overflow | no in vitro PFK-M inhibition could be detected |  |  |  |  | 
3 | CS(=O)(=O)Nc1nnc(NC(=O)c2ccc3[nH]c4c(c3c2)CCCC4)s1 [Inhibitor No. 23, N-[5-(methanesulfonamido)-1,3,4-thiadiazol-2-yl]-6,7,8,9-tetrahydro-5H-carbazole-3-carboxamide] |  |  | Slightly weaker inhibition | strong inhibition | 9,23±0,6% | 2,98±0,2% | period of strong inhibition of lactate generation, Caco-2 ([3]; 20-80 µM, later the inhibitory effect was lost): 36 h; lactate generation by Caco-2 cells ([3]; different concentrations (20-80 µM)): strong inhibition of lactate generation; concentration at which comprehensive inhibition of lactate formation was detected, COLO 829 ([4]; sequential re-insertion at 24-hour intervals): ≥ 20 µM; period of strong inhibition of lactate generation, MDA-MB-231 ([5]; later on lactate generation re-appeared): 42 h; average percentages of dead cells, Caco-2, sequential re-insertion [6, 9]: 4,05±0,54%; average percent of dead cells, Caco-2 ([6]; single addition, average over control and different concentrations of inhibitor): 3,35±0,08%; average percentages of dead cells, COLO 829, sequential re-insertion [7, 9]: 2,40±0,09%; average percentages of dead cells, MDA-MB-231, sequential re-insertion [8, 9]: 2,20±0,15%
4 | Cc1ccc(-c2cccc(-c3ccn(Cc4nnc(C)o4)n3)c2)nn1 [Inhibitor No. 14] | Less efficient reduction of lactate overflow | no in vitro PFK-M inhibition could be detected |  |  |  |  | 
5 | O=C(Nc1nnc(-c2ccno2)o1)[C@H]1COc2ccccc2O1 [Inhibitor No. 31, (2R)-N-(5-isoxazol-5-yl-1,3,4-oxadiazol-2-yl)-2,3-dihydro-1,4-benzodioxine-2-carboxamide] |  |  | some inhibition | dose dependent inhibition of lactate excretion | 8,26±0,38% | 6,87±0,44% | 
6 | CNC(=O)c1nc(CN2CCc3onc(-c4ccccc4F)c3C2)no1 [Inhibitor No. 13, 3-{[3-(2-fluorophenyl)-6,7-dihydroisoxazolo[4,5-c]pyridin-5(4H)-yl]methyl}-N-methyl-1,2,4-oxadiazole-5-carboxamide] | Less efficient reduction of lactate overflow | no in vitro PFK-M inhibition could be detected |  |  |  |  | 
